The source of these data is patent publication EP0696280B1, “SUBSTITUTED PYRROLIDIN-3-YL-ALKYL-PIPERIDINES USEFUL AS TACHYKININ ANTAGONISTS” (MERRELL PHARMACEUTICALS INC., priority 1993, dated 1994).

For assay [1], the system named is capsaicin-induced respiratory effects. In words: Antagonism of capsaicin aerosol induced respiratory effects in conscious guinea pigs (whole body plethysmography). Format: in vivo, guinea pig. Particulars: for DYSPNEA ONSET / MAXIMUM PRESSURE INCREASE (mmH2O) / SRE NUMBER*: mean and SEM; for SRE NUMBER*: number of coughs/gasps during 19 min exposure. The procedure:
(§1) In vivo experiments were performed using male Duncan Hartley guinea pigs (250-350g). Changes in conscious breathing patterns were monitored in four animals simultaneously using modified whole body plethysmography consisting of four small plexiglass boxes each connected to a reference box via Validyne DP 45-16 differential pressure transducers. The 4 boxes were equipped with an air supply line (also used for aerosol delivery) and an exhaust air line. Supply and exhaust lines were of the same length and narrow bore and arose from a common supply chamber and vented to a common exhaust chamber. This system was used to ensure that fluctuations in supply air and atmospheric pressure would remain in phase and be eliminated from the net signal by the differential pressure transducers. The analog pressure signals were digitalized via a Data Translation DT2821 A to D board. Data were collected at a rate of 100 samples/second/animal. Each cycle of pressure change was analyzed using the following parameters: rising and falling slope determined between minimum and maximum pressures, the ratio of rising over falling slope, and the magnitude of the change between initial trough pressure and peak cycle pressure. Using these values (and observing the animals) the pressure cycles were characterized into normal breaths, forced exhalations (apparent by abdominal heaving), significant respiratory events (SREs; usually coughs, less often sneezes or gasps which were characterized by transient, extremely large pressure increases which were distinguishable from noise) and movement/noise with a PCAT 286 running a System V UNIX operating system. Dyspnea was defined as a significant, sustained increase in plethysmograph pressure which was associated with an observable shift to labored breathing in the animal.
(§2) During the course of a typical experiment in which airway responsiveness to various bronchoconstricting agents was examined, aerosols were delivered for 19 min (0.33 ml/min) using a DeVilbiss Ultraneb 99 ultrasonic nebulizer and animals monitored during this time. Prior to nebulization, 1 min of resting breathing was collected to establish a baseline pressure. […] The vehicle for nebulization of all bronchoconstrictive agents was phosphate buffered saline (pH 7.4) which elicited no respiratory effects itself. Putative tachykinin antagonists were administered either (i.v.) 20 min prior to onset of aerosol exposure or orally 1 hour prior to onset (to guinea pigs after an overnight fast).
Capsaicin aerosol is known to promote release of the tachykinins SP and NKA from sensory nerves in the airways of guinea pigs which may then act upon NK1 and NK2 receptors, respectively to elicit respiratory effects. […]
Values are mean and SEM of data derived from number of animals indicated in parenthesis. Putative tachykinin antagonists were administered intravenously 20 min prior to initiation of capsaicin aerosol (0.001%). *SRE number indicates the number of coughs/gasps which occurred during the 19 min capsaicin exposure period.
Values are mean and SEM of data derived from number of animals indicated in parenthesis. Putative tachykinin antagonists were administered by oral gavage 1 hr prior to initiation of capsaicin aerosol (0.001%). *SRE number indicates the number of coughs/gasps which occurred during the 19 min capsaicin exposure period.

Assay [2] concerns NKA-induced respiratory effects. Description: Antagonism of NKA aerosol induced respiratory effects in conscious guinea pigs (whole body plethysmography). Format: in vivo, guinea pig. The following applies: 20 min prior to NKA aerosol (0.05%); for DYSPNEA ONSET: mean and SEM. The procedure: as §1, §2
Table 6 illustrates the effects of the compounds of Example 3; Example 20A; and Example 5A on respiratory effects induced by NKA aerosol. […] These effects were dose dependent i.e. the higher the dose of compound, the greater attenuation of NKA-mediated effects. […]
Compounds were administered 20 min prior to initiation of NKA aerosol (0.05%). Values for each treatment represent the mean and SEM of data from 5-37 animals per dose.

The mark [3] stands for this setting: 1 mg/kg intravenously 20 min prior to capsaicin aerosol (0.001%).
The mark [4] stands for this setting: 2.5 mg/kg intravenously 20 min prior to capsaicin aerosol (0.001%).
The mark [5] stands for this setting: 5 mg/kg intravenously 20 min prior to capsaicin aerosol (0.001%).
Where [6] appears, read: 10 mg/kg intravenously 20 min prior to capsaicin aerosol (0.001%).

As to `COc1cc(C(=O)N2CCC(CCN3CCC(C(N)=O)(c4ccccc4)CC3)(c3ccc(Cl)c(Cl)c3)C2)cc(OC)c1OC.Cl` (single isomer, unassigned; (+)) [Example 20A, (+)-1-[2-[3-(3,4-dichloro-phenyl)-1-(3,4,5-trimethoxy-benzoyl)-pyrrolidin-3-yl] -ethyl]-4-phenyl-piperidine-4-carboxylic acid amide hydrochloride], the “DYSPNEA INCIDENCE” value in assay [1] (setting [3]) is on record as 77.8% (7/9); in assay [1] (setting [4]), 100% (10/10); in assay [1] (setting [5]) it was 44.4% (4/9); in assay [1] (setting [6]) it was 55.6% (5/9); in assay [2] (1 mg/kg) it was 100% (10/10); in assay [2] (5 mg/kg) it was 90% (9/10). For the same compound, the “DYSPNEA INCIDENCE” value in assay [2] (10 mg/kg) is recorded as 70% (7/10). In addition, the “DYSPNEA ONSET” value in assay [1] (setting [3]) is 331 ± 22 s; in assay [1] (setting [4]) it was 426 ± 57 s; in assay [1] (setting [5]) it was 597 ± 186 s; in assay [1] (setting [6]), 592 ± 71 s; in assay [2] (1 mg/kg) it was 451 ± 30 s; in assay [2] (5 mg/kg), 706 ± 82 s. Further, the “DYSPNEA ONSET” value in assay [2] (10 mg/kg) was determined as 829 ± 105 s. Further, the “MAXIMUM PRESSURE INCREASE (mmH2O)” value in assay [1] (setting [3]) is reported as 1.0 ± 0.1 mmH2O; in assay [1] (setting [4]), 0.6 ± 0.1 mmH2O; in assay [1] (setting [5]) it was 0.8 ± 0.06 mmH2O; in assay [1] (setting [6]), 0.8 ± 0.1 mmH2O. Also, the “SRE NUMBER*” value is listed as 9.9 ± 2.7 in assay [1] (setting [3]), 8.3 ± 1.6 in assay [1] (setting [4]), 4.4 ± 1.9 in assay [1] (setting [5]) and 3.3 ± 1.1 in assay [1] (setting [6]).
